Laboratory results published in publication PMC8583042, “New Hybrid Compounds Combining Fragments of Usnic Acid and Thioether Are Inhibitors of Human Enzymes TDP1, TDP2 and PARP1” (International Journal of Molecular Sciences, 2021).

Target: T1, TDP2 (Homo sapiens, UniProt O95551)
T1 construct: His-tag (N); made in house; host or cells: E. coli BL21 (DE3)
T1 sequence (O95551 1-362): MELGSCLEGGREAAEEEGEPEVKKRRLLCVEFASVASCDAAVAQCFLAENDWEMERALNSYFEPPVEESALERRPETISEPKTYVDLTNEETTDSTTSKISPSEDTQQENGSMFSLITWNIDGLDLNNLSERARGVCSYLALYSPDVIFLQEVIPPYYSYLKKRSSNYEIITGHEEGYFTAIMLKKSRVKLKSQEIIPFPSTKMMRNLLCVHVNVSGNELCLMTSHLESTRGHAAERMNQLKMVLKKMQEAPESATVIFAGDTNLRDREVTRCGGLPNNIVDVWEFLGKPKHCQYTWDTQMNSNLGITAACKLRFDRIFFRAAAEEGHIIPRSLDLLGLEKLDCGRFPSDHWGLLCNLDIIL
Assay: Gel-based TDP2 activity assay
Assay type: biochemical
Description: To study the ability of the investigated compounds to inhibit TDP2 activity, we separated the TDP2 reaction products under denaturing conditions in polyacrylamide gel (PAGE). We tested the ability of TDP2 to eliminate tyrosine residues from the 5’ end of the oligonucleotide substrate in the absence and presence of TDP1 inhibitors. […] The residual TDP2 activity for the best four TDP1 inhibitors, 7g,h and 10a,b, was from 30 to 60%, depending on the tested compound, at a 1 mM concentration of the inhibitor. We tested the ability of compounds 7g,h and 10a,b to inhibit TDP2 activity at 0.2 mM and 0.5 mM concentrations (Figure S26).
The recombinant N-terminally His-tagged TDP2 was expressed in E. coli BL21 (DE3) cells. The plasmid pLATE-31-TDP2 expression vector was constructed as follows. cDNA encoding the TDP2 protein was cloned in the pLATE-31 expression vector using a LICator LIC Cloning and Expression System (Thermo Scientific, Waltham, MA, USA). […]
Oligonucleotide 5′- tyrosine -AAC GTC AGG GTC TTC C- FAM -3′ was synthesized as described above and used for the indication of TDP2 enzyme activity in polyacrylamide gel. […] A Typhoon FLA 9500 phosphorimager (GE Healthcare, Boston, MA, USA) was used for gel scanning and imaging, and the data were analyzed with QuantityOne 4.6.7 software (Bio-Rad Laboratories, Inc., Hercules, CA, USA).

Compound	TDP2 inhibition (in words)
CC(=O)C1=C(O)C=C2Oc3c(C(=O)C[S+]([O-])c4nc5ccccc5s4)c(O)c(C)c(O)c3[C@@]2(C)C1=O (stereo partly drawn) [10a, (2R)-4-acetyl-10-[2-(1,3-benzothiazole-2-sulfinyl)acetyl]-5,11,13-trihydroxy-2,12-dimethyl-8-oxatricyclo[7.4.0.0^2,7]trideca-1(13),4,6,9,11-pentaen-3-one]	moderately inhibit TDP2
CC(=O)c1c(O)c(C)c(O)c2c1OC1=CC(=O)C(C(C)=O)C(=O)C12C (centres unmarked) [UA, usnic acid]	did not inhibit TDP2
